EC50 data for 16 compounds are collected here from patent US20140221361A1, “C-19 MODIFIED TRITERPENOIDS WITH HIV MATURATION INHIBITORY ACTIVITY” (priority 2013, published 2014).

For one test, the system named is recombinant NL4-3 virus (Renilla luciferase in nef, Gag P373S). In words: HIV cell culture assay (luciferase reporter, MT-2 cells). The test is classed as cell-based, HIV-1. The note with it: MT-2 cells infected for 4-5 days with NLRluc recombinants; luciferase activity; serial dilutions of inhibitor. As for the experimental part:
MT-2 cells and 293T cells were obtained from the NIH AIDS Research and Reference Reagent Program. MT-2 cells were propagated in RPMI 1640 media supplemented with 10% heat inactivated fetal bovine serum, […]. The 293T cells were propagated in DMEM media supplemented with 10% heat inactivated fetal bovine serum (FBS), 100 units/ml penicillin G and 100 µg/ml streptomycin. The proviral DNA clone of NL4-3 was obtained from the NIH AIDS Research and Reference Reagent Program. A recombinant NL4-3 virus, in which a section of the nef gene from NL4-3 was replaced with the Renilla luciferase gene, was used as a reference virus. In addition, residue Gag P373 was converted to P373S. Briefly, the recombinant virus was prepared by transfection of the altered proviral clone of NL4-3. Transfections were performed in 293T cells using LipofectAMINE PLUS from Invitrogen (Carlsbad, Calif.), according to manufacturer's instruction. The virus was titered in MT-2 cells using luciferase enzyme activity as a marker. Luciferase was quantitated using the Dual Luciferase kit from Promega (Madison, Wis.), with modifications to the manufacturer's protocol. The diluted Passive Lysis solution was pre-mixed with the re-suspended Luciferase Assay Reagent and the re-suspended Stop & Glo Substrate (2:1:1 ratio). Fifty (50) μL of the mixture was added to each aspirated well on assay plates and luciferase activity was measured immediately on a Wallac TriLux (Perkin-Elmer). Antiviral activities of inhibitors toward the recombinant virus were quantified by measuring luciferase activity in cells infected for 4-5 days with NLRluc recombinants in the presence serial dilutions of the inhibitor.
(In general: In a reporter assay the amount or activity of a reporter protein is the signal.)
For `CC(CO)[C@@H]1CC[C@]2(NCCN3CCS(=O)(=O)CC3)CC[C@]3(C)[C@H](CC[C@@H]4[C@@]5(C)CC=C(c6ccc(C(=O)O)c(F)c6)C(C)(C)[C@@H]5CC[C@]43C)[C@@H]12` (single isomer, unassigned) [Example A5], the EC50 (in general, the concentration giving half of the maximal effect) amounted to 6.89 nM.
Same read-out and setting: as for `CC(N)[C@@H]1CC[C@]2(NCCN3CCS(=O)(=O)CC3)CC[C@]3(C)[C@H](CC[C@@H]4[C@@]5(C)CC=C(c6ccc(C(=O)O)cc6)C(C)(C)[C@@H]5CC[C@]43C)[C@@H]12` (single isomer, unassigned) [Example B41], the figure is 40 nM; as for `CC(CO)[C@@H]1CC[C@]2(NCCN3CCS(=O)(=O)CC3)CC[C@]3(C)[C@H](CC[C@@H]4[C@@]5(C)CC=C(c6ccc(C(=O)O)cc6)C(C)(C)[C@@H]5CC[C@]43C)[C@@H]12` (single isomer, unassigned) [Example B5], 1.15 nM.

The test is the same for the next values; noted with them: Renilla, NL43, MT-2 cells infected for 4-5 days with NLRluc recombinants; luciferase activity; serial dilutions of inhibitor.
Take `CC1(C)C(c2ccc(C(=O)O)cc2)=CC[C@]2(C)[C@H]3CC[C@@H]4[C@H]5[C@H](NC(=O)C(F)(F)F)CC[C@]5(NCCN5CCS(=O)(=O)CC5)CC[C@@]4(C)[C@]3(C)CC[C@@H]12` [Example B43, 4-((1R,3aR,5aR,5bR,7aR,11aS,11bR,13aR,13bS)-3a-((2-(1,1-dioxidothiomorpholino)ethyl)amino)-5a,5b,8,8,11a-pentamethyl-1-(2,2,2-trifluoroacetamido)-2,3,3a,4,5,5a,5b,6,7,7a,8,11,11a,11b,12,13,13a,13b-octadecahydro-1H-cyclopenta[a]chrysen-9-yl)benzoic acid]: the half-maximal effective concentration (EC50) was determined as 2.12 nM.
As to `CC1(C)C(c2ccc(C(=O)O)cc2)=CC[C@]2(C)[C@H]3CC[C@@H]4[C@H]5[C@H](C(=O)COS(=O)O)CC[C@]5(NCCN5CCS(=O)(=O)CC5)CC[C@@]4(C)[C@]3(C)CC[C@@H]12` [Example B24, 4-((1R,3aS,5aR,5bR,7aR,11aS,11bR,13aR,13bS)-3a-((2-(1,1-dioxidothiomorpholino)ethyl)amino)-5a,5b,8,8,11a-pentamethyl-1-(2-(sulfinooxy)acetyl)-2,3,3a,4,5,5a,5b,6,7,7a,8,11,11a,11b,12,13,13a,13b-octadecahydro-1H-cyclopenta[a]chrysen-9-yl)benzoic acid], the EC50 amounted to 1000 nM.
For `CC1(C)C(c2ccc(C(=O)O)cc2)=CC[C@]2(C)[C@H]3CC[C@@H]4[C@H]5[C@H](NC(=O)c6ccc(C7(C(F)(F)F)N=N7)cc6)CC[C@]5(NCCN5CCS(=O)(=O)CC5)CC[C@@]4(C)[C@]3(C)CC[C@@H]12` [Example B45, 4-((1R,3aR,5aR,5bR,7aR,11aS,11bR,13aR,13bS)-3a-((2-(1,1-dioxidothiomorpholino)ethyl)amino)-5a,5b,8,8,11a-pentamethyl-1-(4-(3-(trifluoromethyl)-3H-diazirin-3-yl)benzamido)-2,3,3a,4,5,5a,5b,6,7,7a,8,11,11a,11b,12,13,13a,13b-octadecahydro-1H-cyclopenta[a]chrysen-9-yl)benzoic acid], the EC50 stood at 50 nM.
Turning to `CC1(C)C(c2ccc(C(=O)O)cc2)=CC[C@]2(C)[C@H]3CC[C@@H]4[C@H]5[C@H](N)CC[C@]5(NCCN5CCS(=O)(=O)CC5)CC[C@@]4(C)[C@]3(C)CC[C@@H]12` [Example B33, 4-((1R,3aR,5aR,5bR,7aR,11aS,11bR,13aR,13bS)-1-amino-3a-((2-(1,1-dioxidothiomorpholino)ethyl)amino)-5a,5b,8,8,11a-pentamethyl-2,3,3a,4,5,5a,5b,6,7,7a,8,11,11a,11b,12,13,13a,13b-octadecahydro-1H-cyclopenta[a]chrysen-9-yl)benzoic acid], the EC50 worked out at 130 nM.
On to `CC(=O)NC(C)[C@@H]1CC[C@]2(NCCN3CCS(=O)(=O)CC3)CC[C@]3(C)[C@H](CC[C@@H]4[C@@]5(C)CC=C(c6ccc(C(=O)O)cc6)C(C)(C)[C@@H]5CC[C@]43C)[C@@H]12` (stereo partly drawn) [Example B21, 4-((1R,3aS,5aR,5bR,7aR,11aS,11bR,13aR,13bS)-1-(1-acetamidoethyl)-3a-((2-(1,1-dioxidothiomorpholino)ethyl)amino)-5a,5b,8,8,11a-pentamethyl-2,3,3a,4,5,5a,5b,6,7,7a,8,11,11a,11b,12,13,13a,13b-octadecahydro-1H-cyclopenta[a]chrysen-9-yl)benzoic acid], for which the EC50 was 8.18 nM.
For `CC(=CC(=O)O)[C@@H]1CC[C@]2(C(=O)NCCN(C)C)CC[C@]3(C)[C@H](CC[C@@H]4[C@@]5(C)CC[C@H](c6ccc(C(=O)O)cc6)C(C)(C)[C@@H]5CC[C@]43C)[C@@H]12` [Example 19, 4-((1R,3aS,5aR,5bR,7aS,9S,11aS,11bR,13aR,13bR)-1-(1-carboxyprop-1-en-2-yl)-3a-((2-(dimethylamino)ethyl)carbamoyl)-5a,5b,8,8,11a-pentamethylicosahydro-1H-cyclopenta[a]chrysen-9-yl)benzoic acid], the EC50 came to 20 nM.
As for `CNC(=O)N[C@@H]1CC[C@]2(NCCN3CCS(=O)(=O)CC3)CC[C@]3(C)[C@H](CC[C@@H]4[C@@]5(C)CC=C(c6ccc(C(=O)O)cc6)C(C)(C)[C@@H]5CC[C@]43C)[C@@H]12` [Example B29, 4-((1R,3aR,5aR,5bR,7aR,11aS,11bR,13aR,13bS)-3a-((2-(1,1-dioxidothiomorpholino)ethyl)amino)-5a,5b,8,8,11a-pentamethyl-1-(3-methylureido)-2,3,3a,4,5,5a,5b,6,7,7a,8,11,11a,11b,12,13,13a,13b-octadecahydro-1H-cyclopenta[a]chrysen-9-yl)benzoic acid], the EC50 worked out at 30 nM.
As to `CC1(C)C(c2ccc(C(=O)O)cc2)=CC[C@]2(C)[C@H]3CC[C@@H]4[C@H]5[C@H](C(=O)O)CC[C@]5(NCCN5CCS(=O)(=O)CC5)CC[C@@]4(C)[C@]3(C)CC[C@@H]12` [Example B17, (1R,3aS,5aR,5bR,7aR,11aS,11bR,13aR,13bS)-9-(4-carboxyphenyl)-3a-((2-(1,1-dioxidothiomorpholino)ethyl)amino)-5a,5b,8,8,11a-pentamethyl-2,3,3a,4,5,5a,5b,6,7,7a,8,11,11a,11b,12,13,13a,13b-octadecahydro-1H-cyclopenta[a]chrysene-1-carboxylic acid], the EC50 was 2070 nM.
As for `CC1([C@@H]2CC[C@]3(N)CC[C@]4(C)[C@H](CC[C@@H]5[C@@]6(C)CC[C@H](c7ccc(C(=O)O)cc7)C(C)(C)[C@@H]6CC[C@]54C)[C@@H]23)CC1` [Example B54, 4-((1R,3aS,5aR,5bR,7aS,9S,11aS,11bR,13aR,13bR)-3a-amino-5a,5b,8,8,11a-pentamethyl-1-(1-methylcyclopropyl)icosahydro-1H-cyclopenta[a]chrysen-9-yl)benzoic acid], the EC50 was found to be 0.577 nM.
As for `C=C(CNCCN1CCOCC1)[C@@H]1CC[C@]2(C(=O)O)CC[C@]3(C)[C@H](CC[C@@H]4[C@@]5(C)CC=C(c6ccc(C(=O)O)cc6)C(C)(C)[C@@H]5CC[C@]43C)[C@@H]12` [Example 1, (1R,3aS,5aR,5bR,7aR,11aS,11bR,13aR,13bS)-9-(4-carboxyphenyl)-5a,5b,8,8,11a-pentamethyl-1-(3-(2-morpholinoethylamino)prop-1-en-2-yl)-2,3,3a,4,5,5a,5b,6,7,7a,8,11,11a,11b,12,13,13a,13b-octadecahydro-1H-cyclopenta[a]chrysene-3a-carboxylic acid], the EC50 was 40 nM.
For the compound `CC(CN1CCOCC1)[C@@H]1CC[C@]2(NCCN3CCS(=O)(=O)CC3)CC[C@]3(C)[C@H](CC[C@@H]4[C@@]5(C)CC=C(c6ccc(C(=O)O)cc6)C(C)(C)[C@@H]5CC[C@]43C)[C@@H]12` (single isomer, unassigned) [Example B16], the EC50 was found to be 0.827 nM.
`C=C(CNCCN(C)C)[C@@H]1CC[C@]2(C(=O)O)CC[C@]3(C)[C@H](CC[C@@H]4[C@@]5(C)CC=C(c6ccc(C(=O)O)cc6)C(C)(C)[C@@H]5CC[C@]43C)[C@@H]12` [Example 5, (1R,3aS,5aR,5bR,7aR,11aS,11bR,13aR,13bS)-9-(4-carboxyphenyl)-1-(3-(2-(dimethylamino)ethylamino)prop-1-en-2-yl)-5a,5b,8,8,11a-pentamethyl-2,3,3a,4,5,5a,5b,6,7,7a,8,11,11a,11b,12,13,13a,13b-octadecahydro-1H-cyclopenta[a]chrysene-3a-carboxylic acid]: the EC50 came to 160 nM.
Take `COCCS(=O)(=O)CCN(C)CCN[C@]12CC[C@@H](N(C)C)[C@@H]1[C@H]1CC[C@@H]3[C@@]4(C)CC=C(c5ccc(C(=O)O)cc5)C(C)(C)[C@@H]4CC[C@@]3(C)[C@]1(C)CC2` [Example B34]: the concentration for a half-maximal effect (EC50) came out at 20 nM.
